For this assay, the target named is T1, AR (Homo sapiens, UniProt P10275).
T1 construct: endogenous in cells; host or cells: VCaP cells
T1 sequence (P10275 1-920): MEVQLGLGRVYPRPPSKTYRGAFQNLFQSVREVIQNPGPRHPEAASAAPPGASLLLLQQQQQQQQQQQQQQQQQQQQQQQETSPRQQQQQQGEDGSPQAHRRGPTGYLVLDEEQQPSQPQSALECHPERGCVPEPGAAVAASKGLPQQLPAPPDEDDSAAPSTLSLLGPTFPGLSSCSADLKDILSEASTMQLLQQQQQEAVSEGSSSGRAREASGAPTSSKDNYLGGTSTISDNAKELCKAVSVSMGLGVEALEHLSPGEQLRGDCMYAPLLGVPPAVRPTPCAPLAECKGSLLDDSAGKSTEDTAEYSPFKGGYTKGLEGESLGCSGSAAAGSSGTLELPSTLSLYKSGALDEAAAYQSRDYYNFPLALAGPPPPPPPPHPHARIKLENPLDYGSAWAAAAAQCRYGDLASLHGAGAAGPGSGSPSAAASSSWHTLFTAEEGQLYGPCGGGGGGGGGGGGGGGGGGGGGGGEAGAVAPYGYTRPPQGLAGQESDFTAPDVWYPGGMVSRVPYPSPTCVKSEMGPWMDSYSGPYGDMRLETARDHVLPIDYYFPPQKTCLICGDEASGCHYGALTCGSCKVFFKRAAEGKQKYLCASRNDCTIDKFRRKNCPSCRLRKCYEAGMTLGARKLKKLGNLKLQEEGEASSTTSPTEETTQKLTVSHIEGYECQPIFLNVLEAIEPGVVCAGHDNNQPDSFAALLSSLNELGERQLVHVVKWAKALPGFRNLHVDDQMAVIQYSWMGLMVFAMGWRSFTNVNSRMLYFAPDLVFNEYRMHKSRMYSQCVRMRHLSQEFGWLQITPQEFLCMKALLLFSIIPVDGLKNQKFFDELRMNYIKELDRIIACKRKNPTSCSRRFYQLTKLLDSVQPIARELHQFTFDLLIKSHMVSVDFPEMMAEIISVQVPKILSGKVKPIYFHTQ
The assay can be described thus: VCAP AR Degradation Assay. The class given is cell-based. The note with it: VCaP cells, 24 h, AR ELISA; for DC50: concentration of compound when AR level = 50% of DMSO control (50% AR degradation); for Y: lowest measured AR level normalized to DMSO control (AR degradation efficiency). The method, boiled down: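 VCaP cells (DMEM, 8% FBS) were treated 24 h at 37 °C with a 10-point 1:3 series from 5 µM final, with 0.1% DMSO control. Total AR in lysates was measured by sandwich ELISA as percent of DMSO. A 4-parameter fit gave DC50 (50% of control) and EC50; fitted Ymin marks degradation efficiency.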

In patent publication US11560371B2, “Cereblon binding compounds, compositions thereof, and methods of treatment therewith” (Celgene Corporation, priority 2020, dated 2023) one finds DC50 and Y data, which are given here for three compounds.

Where a name gives a salt, the structure may show the parent alone.

By DC50 is commonly meant the concentration giving 50% degradation.

Consider `C[C@@H]1CN(CCO[C@H]2CC[C@H](N3C(=S)N(c4ccc(C#N)c(Cl)c4)C(=O)C3(C)C)CC2)C[C@H](C)N1CC(=O)Nc1cccc2c(N3CCC(=O)NC3=O)nn(C)c12` [Cmpd 3, 2-((2R,6S)-4-(2-((trans-4-(3-(3-Chloro-4-cyanophenyl)-5,5-dimethyl-4-oxo-2-thioxoimidazolidin-1-yl)cyclohexyl)oxy)ethyl)-2,6-dimethylpiperazin-1-yl)-N-(3-(2,4-dioxotetrahydropyrimidin-1(2H)-yl)-1-methyl-1H-indazol-7-yl)acetamide hydrochloride], for which the DC50 lay within 2 to 10 nM and the Y result was “*** (30%<Y<60%)”.
On to `Cn1nc(N2CCC(=O)NC2=O)c2cccc(NC(=O)CN3CCC(CCO[C@H]4CC[C@H](N5C(=S)N(c6ccc(C#N)c(C(F)(F)F)c6)C(=O)C5(C)C)CC4)C(F)(F)C3)c21` (stereo partly drawn) [Cmpd 35, 2-(4-(2-(((trans)-4-(3-(4-Cyano-3-(trifluoromethyl)phenyl)-5,5-dimethyl-4-oxo-2-thioxoimidazolidin-1-yl)cyclohexyl)oxy)ethyl)-3,3-difluoropiperidin-1-yl)-N-(3-(2,4-dioxotetrahydropyrimidin-1(2H)-yl)-1-methyl-1H-indazol-7-yl)acetamide], for which the DC50 was not above 2 nM and the Y entry is on record as “* (0<Y≤20%)”.
In the same order, the values of `C[C@@H]1C[C@H](OCC[C@H]2CC[C@H](N3C(=S)N(c4cnc(C#N)c(C(F)(F)F)c4)C(=O)C3(C)C)CC2)C[C@H](C)N1CC(=O)Nc1cccc2c(N3CCC(=O)NC3=O)nn(C)c12` [Cmpd 32, 2-((2R,4r,6S)-4-(2-((trans)-4-(3-(6-Cyano-5-(trifluoromethyl)pyridin-3-yl)-5,5-dimethyl-4-oxo-2-thioxoimidazolidin-1-yl)cyclohexyl)ethoxy)-2,6-dimethylpiperidin-1-yl)-N-(3-(2,4-dioxotetrahydropyrimidin-1(2H)-yl)-1-methyl-1H-indazol-7-yl)acetamide] are 2 to 10 nM and “* (0<Y≤20%)”.
